According to US10520508B2, “Predictive baseline biomarkers for use of vascular disrupting agents” (BIONOMICS LIMITED, priority 2014, dated 2019):

Experiments:
[1] = Disruptor-1 trial: BNC105P in combination with everolimus, maximum tolerated dose; assay type: in vivo, human (metastatic clear cell renal cell carcinoma patients); settings: intravenous infusion over 10 minutes, days 1 and 8 of 21 day cycle, with 10 mg oral everolimus daily
Description: The objective of the study was to determine the response rate of patients administered BNC105P (vascular disrupting agent) in combination with everolimus (mTOR inhibitor) in patients who had progressed from prior tyrosine kinase inhibitor therapy. In addition, the present inventors determined the improvement in 6-months progression free survival (PFS) with the addition of BNC105P to everolimus (Afinitor). A control group of patients received everolimus alone.
The medical histories of patients were obtained prior to commencement of the study.
Patients in the BNC105P in combination with everolimus study group (the “combination arm”) were administered 10 mg oral everolimus daily. On days 1 and 8 of the 21 day cycle period, the patients were administered 16 mg/m^2 BNC105P, which had been determined to be the maximum tolerated dose, by intravenous infusion over a 10 minute period (FIG. 1). Treatment was continued until disease progressed, intolerable toxicity became apparent, or until consent was withdrawn. A control group of patients were administered with everolimus alone.

[2] = test system: tumour endothelial cells (activated) and normal endothelial cells (quiescent); assay: Potency against activated (tumour) versus quiescent (normal) endothelial cells; assay type: cell-based; settings: activated vs quiescent endothelial cells
[3] = test system: tubulin; assay: Tubulin polymerisation inhibition; assay type: biochemical

## COc1cc(C(=O)c2c(C)oc3c(OP(=O)([O-])[O-])c(OC)ccc23)cc(OC)c1OC.[Na+].[Na+] [BNC105P, disodium [6-methoxy-2-methyl-3-(3,4,5-trimethoxybenzoyl)-1-benzofuran-7-yl] phosphate]
[1]
  maximum tolerated dose: 16 mg/m^2

## COc1ccc(/C=C\c2cc(OC)c(OC)c(OC)c2)cc1O [Combretastatin A4, reference compound]
[2]
  selectivity between activated (tumour) and quiescent (normal) endothelial cells: equally potent against quiescent and activated endothelial cells

## COc1cc(C(=O)c2c(C)oc3c(O)c(OC)ccc23)cc(OC)c1OC [formula III, 2-methyl-7-hydroxy-3-(3,4,5-trimethoxybenzoyl)-6-methoxybenzofuran]
[2]
  selectivity between activated (tumour) and quiescent (normal) endothelial cells: show selectivity towards tumor endothelial cells (activated) over normal endothelial cells (quiescent)
[3]
  tubulin polymerisation inhibition: potent tubulin polymerisation inhibitors
